We go through 19 molecules from patent US20220306617A1, “SUBSTITUTED 1,3-PHENYL HETEROARYL DERIVATIVES AND THEIR USE IN THE TREATMENT OF DISEASE” (NOVARTIS AG, priority 2019, published 2022).

Where a name gives a salt, the structure may show the parent alone.

This assay concerns the target T1, abc isoform of human TMEM16A channel expressed in CHO cells (Homo sapiens, UniProt Q5XXA6, DEL476-501).
T1 construct: expressed in transfected cells; host or cells: CHO cells, doxycycline-inducible expression under Blasticidin/Zeocin selection
T1 sequence (Q5XXA6 with tags, fused parts or gaps isoform Q5XXA6-5 DEL539-564): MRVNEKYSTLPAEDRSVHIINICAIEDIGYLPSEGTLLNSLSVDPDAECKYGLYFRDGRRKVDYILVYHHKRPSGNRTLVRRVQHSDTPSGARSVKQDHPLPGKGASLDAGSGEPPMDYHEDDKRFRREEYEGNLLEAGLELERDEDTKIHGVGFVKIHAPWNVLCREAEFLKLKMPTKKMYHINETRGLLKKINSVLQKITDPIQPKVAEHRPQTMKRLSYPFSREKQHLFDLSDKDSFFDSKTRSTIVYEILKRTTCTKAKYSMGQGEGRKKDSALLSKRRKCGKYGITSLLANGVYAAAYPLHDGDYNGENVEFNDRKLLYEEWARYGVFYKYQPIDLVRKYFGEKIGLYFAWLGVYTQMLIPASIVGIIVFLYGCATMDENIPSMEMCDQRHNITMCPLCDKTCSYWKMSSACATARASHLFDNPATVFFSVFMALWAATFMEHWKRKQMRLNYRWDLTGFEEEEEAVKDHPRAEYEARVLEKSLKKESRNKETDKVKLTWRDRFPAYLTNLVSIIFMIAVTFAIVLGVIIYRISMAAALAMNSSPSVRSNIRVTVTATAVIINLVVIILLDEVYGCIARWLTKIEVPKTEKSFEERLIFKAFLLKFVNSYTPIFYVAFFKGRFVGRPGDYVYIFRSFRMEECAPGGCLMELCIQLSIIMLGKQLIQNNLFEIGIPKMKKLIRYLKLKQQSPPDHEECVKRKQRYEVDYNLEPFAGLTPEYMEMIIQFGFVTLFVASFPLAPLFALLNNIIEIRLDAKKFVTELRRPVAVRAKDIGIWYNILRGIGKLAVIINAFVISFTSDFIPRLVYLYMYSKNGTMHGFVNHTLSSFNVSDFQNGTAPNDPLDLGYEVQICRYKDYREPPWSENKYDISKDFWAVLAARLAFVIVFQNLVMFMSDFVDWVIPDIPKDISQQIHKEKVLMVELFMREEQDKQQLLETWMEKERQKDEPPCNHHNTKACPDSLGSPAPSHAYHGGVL
In words: Automated patch clamping (QPatch) assay to measure TMEM16A activity in whole-cell. The format is cell-based. To be noted: for EC50: CHO cells expressing human TMEM16A (abc), whole-cell automated patch clamp, Hill fit, read-out: TMEM16A QPATCH assay EC50 V3 EC50; for Emax: CHO, maximum current at highest dose relative to reference potentiator at maximal concentration (upper limit) and vehicle (lower limit), read-out: TMEM16A QPATCH assay EC50 V3 Assay Window (% TMEM16A max activation). In outline:
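CHO cells with doxycycline-induced (1 μg/mL, 18-24 h) human TMEM16A abc isoform; QPatch whole-cell recording, hold −70 mV, step +70 mV 1500 ms, then −90 to +70 mV ramp. Compounds in 0.3% DMSO; EC50 by Hill fit; % max activation relative to vehicle baseline and reference potentiator maximum.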
A general note: The patch-clamp technique gives a direct electrical read-out from membranes.

In general, EC50 refers to the concentration needed to bring the measured effect to its halfway point. Regarding `CCC(CC)NC(=O)c1cc(-c2cccc(-c3ncc(C(=O)NC(C)(C)C(=O)OC(C)(C)C)o3)c2)[nH]n1` [Example 3.69, Tert-Butyl 2-Methyl-2-(2-(3-(3-(Pentan-3-Ylcarbamoyl)-1H-Pyrazol-5-Yl)Phenyl)Oxazole-5-Carboxamido)Propanoatehexafluorophosphatepropanoate Hexafluorophosphate], the EC50 turned out to be 260 nM and the Emax turned out to be 76%.
In the case of `CCC(CC)NC(=O)c1cnc(-c2cccc(-c3cc(C(=O)Nc4cccc(OC(C)C)c4)n[nH]3)c2)o1` [Example 3.21, 2-(3-(3-((3-Isopropoxyphenyl)Carbamoyl)-1H-Pyrazol-5-Yl)Phenyl)-N-(Pentan-3-Yl)Oxazole-5-Carboxamide], the EC50 is 190 nM and the Emax was 74%.
On the same counts, the results for `COC(=O)[C@@H](NC(=O)c1cnc(-c2cccc(-c3nnc(C(=O)N[C@@H](C)C4CC4)[nH]3)c2)o1)C(C)C` [Example 12.3, (S)-Methyl 2-(2-(3-(5-(((S)-1-Cyclopropylethyl)Carbamoyl)-4H-1,2,4-Triazol-3-Yl)Phenyl)Oxazole-5-Carboxamido)-3-Methylbutanoate] are 220 nM and 92%.
On the same counts, the results for `CCC(CC)NC(=O)c1cnc(-c2cccc(-c3nc(C(=O)NC(CC)CC)n(CCO)n3)c2)o1` [Example 16.0, 2-(3-(1-(2-Hydroxyethyl)-5-(Pentan-3-Ylcarbamoyl)-1H-1,2,4-Triazol-3-Yl)Phenyl)-N-(Pentan-3-Yl)Oxazole-5-Carboxamide] are 130 nM and 177%.
Regarding `CCC(CC)NC(=O)c1cc(-c2cccc(-c3ncc(C(=O)N[C@H](C)C(C)C)o3)c2)[nH]n1` [Example 1.46, (R)-N-(3-Methylbutan-2-Yl)-2-(3-(3-(Pentan-3-Ylcarbamoyl)-1 H-Pyrazol-5-yl)Phenyl)Oxazole-5-Carboxamide], the EC50 came to 990 nM and the Emax was 19%.
Regarding `COC(=O)[C@@H](NC(=O)c1cnc(-c2cccc(-c3nnc(C(=O)NC(C4CC4)C4CC4)[nH]3)c2)o1)C(C)C` [Example 12.9, (S)-Methyl 2-(2-(3-(5-((Dicyclopropylmethyl)Carbamoyl)-4H-1,2,4-Triazol-3-Yl)Phenyl)Oxazole-5-Carboxamido)-3-Methylbutanoate], the EC50 was 20 nM and the Emax came to 134%.
On to `CCC(CC)NC(=O)c1cnc(-c2cccc(-c3cc(C(=O)N[C@@H](CC(C)C)C(=O)OC)n[nH]3)c2)o1` [Example 3.27, (S)-Methyl 4-Methyl-2-(5-(3-(5-(Pentan-3-Ylcarbamoyl)Oxazol-2-Yl)Phenyl)-1H-Pyrazole-3-Carboxamido)Pentanoate], for which the EC50 is 10 nM and the Emax was 87%.
On the same counts, the results for `CCC(CC)NC(=O)c1cnc(-c2cccc(-c3cc(C(=O)N[C@@H](CC(C)C)C(=O)NCC(=O)OC(C)(C)C)n[nH]3)c2)o1` [Example 3.57, (S)-Tert-Butyl 2-(4-Methyl-2-(5-(3-(5-(Pentan-3-Ylcarbamoyl)Oxazol-2-Yl)Phenyl)-1H-Pyrazole-3-Carboxamido)Pentanamido)Acetate] are 650 nM and 111%.
For `CCC(CC)NC(=O)c1cc(-c2cccc(-c3ncc(C(=O)NCc4ccccc4)o3)c2)[nH]n1` [Example 1.19, N-Benzyl-2-(3-(3-(Pentan-3-Ylcarbamoyl)-1H-Pyrazol-5-Yl)Phenyl)Oxazole-5-Carboxamide], in that order: 130 nM and 69%.
For `CCC(CC)NC(=O)c1cnc(-c2cccc(-c3cc(C(=O)N[C@H](CC)[C@H]4CC[C@@H](C)O4)n[nH]3)c2)o1` [Example 3.53, 2-(3-(3-(((R)-1-((2R,5R)-5-Methyltetrahydrofuran-2-Yl)Propyl)Carbamoyl)-1 H-Pyrazol-5-Yl)Phenyl)-N-(Pentan-3-Yl)Oxazole-5-Carboxamide], in that order: 720 nM and 109%.
Regarding `CCC(CC)NC(=O)c1cnc(-c2cccc(-c3cc(C(=O)NC(C)(C)c4ccccc4)n[nH]3)c2)o1` [Example 3.54, N-(Pentan-3-Yl)-2-(3-(3-((2-Phenylpropan-2-Yl)Carbamoyl)-1H-Pyrazol-5-Yl)Phenyl)Oxazole-5-Carboxamide], the EC50 stood at 60 nM and the Emax amounted to 109%.
For `CCC(CC)NC(=O)c1cnc(-c2cccc(-c3cc(C(=O)N4CCC(C(=O)OC(C)(C)C)C4)n[nH]3)c2)o1` (centres unmarked) [Example 3.62, Tert-Butyl 1-(5-(3-(5-(Pentan-3-Ylcarbamoyl)Oxazol-2-Yl)Phenyl)-1H-Pyrazole-3-Carbonyl)Pyrrolidine-3-Carboxylate Trifluoroacetate], in that order: 960 nM and 70%.
On the same counts, the results for `CCC(CC)NC(=O)c1cc(-c2cccc(-c3ncc(C(=O)N[C@@H](C)C4CC4)o3)c2)nn1CCO` [Example 4.0, (S)-N-(1-Cyclopropylethyl)-2-(3-(1-(2-Hydroxyethyl)-5-(Pentan-3-Ylcarbamoyl)-1 H-Pyrazol-3-Yl)Phenyl)Oxazole-5-Carboxamide] are 330 nM and 106%.
In the case of `CCC(CC)NC(=O)c1cnc(-c2cccc(-c3cc(C(=O)NCc4ccc(C5(C(F)(F)F)N=N5)cc4)n[nH]3)c2)o1` [Example 3.19, N-(Pentan-3-Yl)-2-(3-(3-((4-(3-(Trifluoromethyl)-3H-Diazirin-3-Yl)Benzyl)Carbamoyl)-1 H-Pyrazol-5-Yl)Phenyl)Oxazole-5-Carboxamide], the EC50 came out at 270 nM and the Emax amounted to 69%.
For `CCOC(=O)CCCCCn1nc(-c2cccc(-c3ncc(C(=O)NC(CC)CC)o3)c2)nc1C(=O)NC(CC)CC` [Example 15.11], in that order: 440 nM and 88%.
For `CCC(CC)NC(=O)c1cc(-c2cccc(-c3ncc(C(=O)N[C@@H](C)c4ccccc4)o3)c2)[nH]n1` [Example 1.21, (S)-2-(3-(3-(Pentan-3-Ylcarbamoyl)-1H-Pyrazol-5-Yl)Phenyl)-N-(1-Phenylethyl)Oxazole-5-Carboxamide], in that order: 930 nM and 92%.
In the case of `C[C@H](NC(=O)c1cnc(-c2cccc(-c3cc(C(=O)N[C@@H](C)C4CC4)n(CC(C)(C)O)n3)c2)o1)C1CC1` [Example 6.3, N-((S)-1-Cyclopropylethyl)-2-(3-(5-(((S)-1-Cyclopropylethyl)Carbamoyl)-1-(2-Hydroxy-2-Methylpropyl)-1H-Pyrazol-3-Yl)Phenyl)Oxazole-5-Carboxamide], the EC50 was determined as 250 nM and the Emax amounted to 73%.
For `COC(=O)[C@H](CC(C)C)NC(=O)c1cnc(-c2cccc(-c3nnc(C(=O)N[C@@H](C)C4CC4)[nH]3)c2)o1` [Example 12.13], in that order: 290 nM and 99%.
For `CCC(CC)NC(=O)c1cnc(-c2cccc(-c3cc(C(=O)N[C@@H](C)C4CC4)n(CC(C)(C)O)n3)c2)o1` [Example 8.0, (S)-2-(3-(5-((1-Cyclopropylethyl)Carbamoyl)-1-(2-Hydroxy-2-Methylpropyl)-1H-Pyrazol-3-Yl)Phenyl)-N-(Pentan-3-Yl)Oxazole-5-Carboxamide], in that order: 200 nM and 106%.
